Measured values published in paper PMC7170299, “Design, synthesis, molecular modelling and biological evaluation of novel 3-(2-naphthyl)-1-phenyl-1H-pyrazole derivatives as potent antioxidants and 15-Lipoxygenase inhibitors” (Journal of Enzyme Inhibition and Medicinal Chemistry, 2020).

Experiments:
[1] = DPPH radical scavenging assay; conditions: mean ± SEM of three experiments; 30 min, 517 nm
Protocol: The DPPH scavenging activity of all synthesized compounds was measured as previously described by Nahar et al.[48] with some modifications. Briefly, 100 µL of different concentrations of the tested compounds (12.5, 25, 50, 100, and 200 µg/mL) were pipetted into a 96-well plate. Then, 100 µL of 100-µM DPPH methanolic solution were added to each well and the plate was incubated protected from light at room temperature for 30 min. The absorbance of the solution was measured at λ517 nm.[49] Ascorbic acid was used as the positive control while DMSO was the negative control. The percentage of DPPH scavenging activity was calculated according to the following equation: % of DPPH scavenging=[(Acontrol–Asample)/Acontrol] ×100, where Acontrol is the absorbance of the control reaction (with all reagents except the test compound), and Asample is the absorbance of the test sample. […] All tests were performed in triplicates.

[2] = NO scavenging assay (sodium nitroprusside / Griess reagent); conditions: for NO IC50: mean ± SEM of three experiments, 90 min, 546 nm
Protocol: The NO scavenging activity of all synthesized compounds was measured as previously described by Ho et al.[50] Briefly, 50 µL of different concentrations of the tested compounds (12.5, 25, 50,100, and 200 µg/mL) were pipetted into a 96-well plate. Then, 50 µL of 10-mM sodium nitroprussides dissolved in phosphate-buffered saline PBS (pH 7.4) were added to each well and the plate was incubated for 90 min at room temperature. Next, an equal volume of Griess reagent (1% of sulphanilamide and 0.1% of naphthyl ethylene diamine in 2.5% […]) was added to each well to measure the nitrite content. The absorbance of the formed pink-coloured chromophore was measured at λ 546 nm. DMSO and ascorbic acid were used as the negative and positive control, respectively. All tests were performed in triplicate. The percentage of NO scavenging activity was calculated according to the following equation: % of NO scavenging=[(Acontrol−Asample)/Acontrol]×100 where Acontrol is the absorbance of the control reaction (with all reagents except the test compound), and Asample is the absorbance of the test sample.

[3] = Superoxide scavenging assay (pyrogallol autoxidation); conditions: mean ± SEM of three experiments; pyrogallol autoxidation, 325 nm
Protocol: The improved pyrogallol autoxidation method was used to determine O2^−. RSA of all synthesized compounds as previously described. Briefly, 50 µL of test compounds (12.5, 25, 50,100, and 200 µg/mL) was added to 2900 µl of […] Tris HCl buffer (0.05 M, pH 7.4) containing 1-mM Na2EDTA. Next, 50 µL of 60-mM pyrogallol in1mM HCl had been thoroughly mixed with the mixture. The absorbance of the reaction mixture was measured at A325 nm every 30 s for 5 min. O2^− RSA was expressed by the oxidation degree of a test group in comparison to that of the control. The absorbance at 325 nm was measured against the Tris-HCl buffer every 30 s for 5 min. The percentage of scavenging effect was calculated using the following equation: O2^− radical scavenging %=[(ΔA325, control/T)−(ΔA325nm, sample/T)/ΔA325nm, control/T]×100 where ΔA325 nm, control is the increase in A325 nm of the reaction mixture without the sample and ΔA325 nm, sample is that for the mixture with the sample; T=5 min. The experiments were performed in triplicate.

[4] = target: T1, Soybean 15-LOX enzyme (Glycine max, UniProt P08170); assay: In vitro lipoxygenase inhibition (Cayman lipoxygenase inhibitor screening assay kit); type: biochemical; conditions: mean ± SEM of three experiments; substrate arachidonic acid
T1 construct: purchased Cayman Chemical 760700
T1 sequence (P08170 1-839): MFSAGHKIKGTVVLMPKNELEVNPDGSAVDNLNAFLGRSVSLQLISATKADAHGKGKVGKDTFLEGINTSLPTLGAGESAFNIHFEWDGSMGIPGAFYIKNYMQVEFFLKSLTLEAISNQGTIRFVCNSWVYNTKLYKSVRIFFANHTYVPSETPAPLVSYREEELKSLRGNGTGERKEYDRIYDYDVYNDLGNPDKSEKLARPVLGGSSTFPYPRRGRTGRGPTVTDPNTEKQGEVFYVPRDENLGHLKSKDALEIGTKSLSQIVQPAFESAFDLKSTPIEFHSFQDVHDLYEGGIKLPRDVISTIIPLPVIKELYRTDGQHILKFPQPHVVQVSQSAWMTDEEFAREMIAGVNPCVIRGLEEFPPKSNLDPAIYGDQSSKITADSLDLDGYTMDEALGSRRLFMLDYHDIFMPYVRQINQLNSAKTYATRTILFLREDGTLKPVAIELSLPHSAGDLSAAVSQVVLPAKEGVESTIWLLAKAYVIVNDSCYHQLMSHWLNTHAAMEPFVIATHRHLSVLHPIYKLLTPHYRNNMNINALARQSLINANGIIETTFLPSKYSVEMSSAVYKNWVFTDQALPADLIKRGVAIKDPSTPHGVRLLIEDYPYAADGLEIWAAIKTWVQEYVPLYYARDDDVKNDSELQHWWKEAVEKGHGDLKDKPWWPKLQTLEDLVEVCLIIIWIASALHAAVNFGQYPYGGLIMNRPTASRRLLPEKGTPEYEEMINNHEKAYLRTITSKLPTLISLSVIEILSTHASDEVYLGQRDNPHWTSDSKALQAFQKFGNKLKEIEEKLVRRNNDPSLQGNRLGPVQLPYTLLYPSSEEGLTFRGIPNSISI
Protocol: The assay was performed using Cayman’s lipoxygenase inhibitor screening assay kit (Catalog No. 760700, Cayman Chemical, USA) according to the manufacturer’s instructions. Briefly, 90 µL of 15-LOX was pipetted into a 96-well plate. Next, 10 µL of test compound at concentrations (2.5, 5.0 and 10 µM) dissolved in DMSO were added to each well. The reaction was initiated by adding 10 µL substrate (AA) and the plate was placed on a shaker for at least 5 minutes. Finally, 100 µL of chromogen (prepared according to manufacturer’s instructions) was added to each well to stop enzyme catalysis and develop the reaction. 100 µL of Assay buffer (0.1 M Tris-HCl, pH7.4) was used in blank wells. […] The absorbance of the solution was measured at λ 490–500 nm. The percentage inhibition was calculated according to the following equation: % inhibition =[(IA−Ainhibitor sample)/IA]×100 where (IA) is the 100% initial activity and (Ainhibitor sample) is the absorbance of the test sample. Dose–response curve was plotted between % inhibition and the drug concentration. The non-linear dose–response curve was used for calculating drug concentration showing 50% enzyme inhibition.

Compound	DPPH IC50 [1] [µg/mL]	NO IC50 [2] [µg/mL]	Superoxide IC50 [3] [µg/mL]	melting point [°C]	IC50 [4] [µM]	NO scavenging potency relative to ascorbic acid ([2]; folds that of ascorbic acid) [folds]
O=C(/C=C/c1cn(-c2ccccc2)nc1-c1ccc2ccccc2c1)c1ccccc1 [Compound 2a, 3-(3-Naphthalen-2-yl-1-phenyl-1H-pyrazole-4-yl)-1-phenyl propenone]	>200	>200	>200	158 to 159		
COc1ccc(C(=O)/C=C/c2cn(-c3ccccc3)nc2-c2ccc3ccccc3c2)cc1 [Compound 2b, 1-(4-Methoxyphenyl)-3-(3-naphthalen-2-yl-1-phenyl-1H-pyrazole-4-yl)-propenone]	182.17 ± 0.99	78.25 ± 1.25	>200	187 to 188	3.13 ± 0.09	
Cc1ccc(C(=O)/C=C/c2cn(-c3ccccc3)nc2-c2ccc3ccccc3c2)cc1 [Compound 2c, 3-(3-Naphthalen-2-yl-1-phenyl-1H-pyrazol-4-yl)-1-p-tolyl propenone]	192.70 ± 1.63	>200	>200	146 to 147	2.8 ± 0.06	
O=C(/C=C/c1cn(-c2ccccc2)nc1-c1ccc2ccccc2c1)c1ccc(Cl)cc1 [Compound 2d, 1-(4-chlorophenyl)-3-(3-naphthalen-2-yl-1-phenyl-1H-pyrazol-4-yl)propenone]	>200	>200	>200	161 to 162		
O=C(/C=C/c1cn(-c2ccccc2)nc1-c1ccc2ccccc2c1)c1ccc(Cl)c(Cl)c1 [Compound 2e, 1-(3,4-Dichlorophenyl)-3-(3-naphthalen-2-yl-1-phenyl-1H-pyrazol-4-yl)propenone]	118.99 ± 1.78	11.04 ± 0.72	>200	168 to 169	4.63 ± 0.09	3.4
COc1ccc(C2=NNC(c3cn(-c4ccccc4)nc3-c3ccc4ccccc4c3)C2)cc1 (centres unmarked) [Compound 3b, 5-(4-Methoxyphenyl)-3′-naphthalen-2-yl-1′-phenyl-3,4-dihydro-2H,1’H-[3,4′] bipyrazole]	11.70 ± 0.29	147.95 ± 1.32	118.65 ± 1.03	177 to 178	4.6 ± 0.06	
Cc1ccc(C2=NNC(c3cn(-c4ccccc4)nc3-c3ccc4ccccc4c3)C2)cc1 (centres unmarked) [Compound 3c, 3’-Naphthalen-2-yl-1’-phenyl-5-p-tolyl-3,4-dihydro-2H, 1’H -[3,4’]bipyrazole]	12.06 ± 1.17	>200	>200	187 to 188	3.77 ± 0.07	
Clc1ccc(C2=NNC(c3cn(-c4ccccc4)nc3-c3ccc4ccccc4c3)C2)cc1 (centres unmarked) [Compound 3d, 5-(4-Chlorophenyl)-3′-naphthalen-2-yl-1′-phenyl-3,4-dihydro-2H,1’H-[3,4′] bipyrazole]	>200	>200	>200	190 to 191		
Clc1ccc(C2=NNC(c3cn(-c4ccccc4)nc3-c3ccc4ccccc4c3)C2)cc1Cl (centres unmarked) [Compound 3e, 5-(3,4-Dichlorophenyl)-3′-naphthalen-2-yl-1′-phenyl-3,4-dihydro-2H,1’H-[3,4′]-bipyrazole]	9.63 ± 0.55	175.72 ± 1.41	129.12 ± 0.82	195 to 196	2.53 ± 0.07	
c1ccc(C2=NN(c3ccccc3)C(c3cn(-c4ccccc4)nc3-c3ccc4ccccc4c3)C2)cc1 (centres unmarked) [Compound 4a, 3′-Naphthalen-2-yl-2,5,1′-triphenyl-3,4-dihydro-2H,1’H-[3,4′]bipyrazole]	34.39 ± 1.03	>200	176.14 ± 1.63	187 to 188	2.53 ± 0.09	
Clc1ccc(C2=NN(c3ccccc3)C(c3cn(-c4ccccc4)nc3-c3ccc4ccccc4c3)C2)cc1 (centres unmarked) [Compound 4d, 5-(4-Chlorophenyl)-3′-naphthalen-2-yl-2,1′-diphenyl-3,4-dihydro-2H,1'H-[3,4′] bipyrazole]	>200	>200	>200	192 to 193		
Clc1ccc(C2=NOC(c3cn(-c4ccccc4)nc3-c3ccc4ccccc4c3)C2)cc1 (centres unmarked) [Compound 5d, 3-(4-Chlorophenyl)-5-(3-naphthalen-2-yl-1-phenyl-1H-pyrazol-4-yl)-4,5-dihydro isoxazole]	>200	>200	>200	185 to 186		
